The structures appear in SMILES notation. The source made the active and inactive calls. The rule behind the calls is not given here.

The IC50 is the point on the concentration scale where inhibition reaches its midpoint. The CC50 is the concentration giving 50% cytotoxicity. By Cmax is commonly meant the maximum level reached in the sampled fluid or tissue. Broadly, the Tmax is the time at which the peak concentration occurs. By AUC is commonly meant the area under the concentration-time curve, a measure of exposure. In general, MRT refers to a mean duration of stay, worked out from the concentration-time curve.

Data set [1] deals with Plasmodium falciparum. Nature of the data set: Antimalarial activity against chloroquine-sensitive Plasmodium falciparum 3D7 infected in human erythrocytes assessed as reduction in parasite growth incubated for 72 hrs by SYBR green dye fluorimetric assay. It counts as functional, organism-based. To be noted: 3D7, Erythrocyte.
Data set [2] concerns Plasmodium falciparum. The data set is described as follows: Antimalarial activity against […] infected in human erythrocytes assessed as reduction in parasite growth incubated for 72 hrs by SYBR green dye fluorimetric assay. It is filed as functional, organism-based. To be noted: K1, Erythrocyte.
Data set [3] can be described thus: Resistance index, ratio of IC50 for antimalarial activity against […] infected in human erythrocytes to IC50 for antimalarial activity against chloroquine-sensitive Plasmodium falciparum 3D7 infected in erythrocytes. It is filed as functional.
The nature of data set [4]: Cytotoxicity against human HepG2 cells. It counts as toxicity, cell-based.
Data set [5] is described as follows: Selectivity index, ratio of CC50 for cytotoxicity against human HepG2 cells to IC50 for antimalarial activity against chloroquine-sensitive Plasmodium falciparum 3D7 infected in human erythrocytes assessed as reduction in parasite growth incubated for 72 hrs by SYBR green dye fluorimetric assay. To be noted: read-out: Ratio CC50/IC50. It counts as toxicity, cell-based.

In data set [6] the test system is Plasmodium falciparum. Nature of the data set: Antimalarial activity against […] infected in human erythrocytes assessed as inhibition of parasitic growth at 5 uM incubated for 72 hrs by SYBR green dye fluorimetric assay relative to control. It is filed as functional, K1, Erythrocyte. More on the design: scale not given: the % may be the effect or the level left.

Data set [7] relates to Plasmodium falciparum. Nature of the data set: Induction of morphological changes in asexual blood stage Plasmodium falciparum assessed as appearance of fragmentation at 1 uM incubated for 24 hrs by Geimsa-staining based light microscopic analysis. It counts as functional, organism-based.
The subject of data set [8] is Plasmodium falciparum. The data set is described as follows: Induction of morphological changes in asexual blood stage Plasmodium falciparum assessed as appearance of condensed cytoplasm at 1 uM incubated for 24 hrs by Geimsa-staining based light microscopic analysis. It counts as functional, organism-based.
For data set [9], the system named is Plasmodium falciparum. Nature of the data set: Induction of morphological changes in asexual blood stage Plasmodium falciparum assessed as appearance of compact structure at 1 uM incubated for 24 hrs by Geimsa-staining based light microscopic analysis. It is filed as functional, organism-based.
The subject of data set [10] is Plasmodium falciparum. The data set is described as follows: Induction of morphological changes in asexual blood stage Plasmodium falciparum assessed as lack of prominent periphery in trophozoites at 1 uM incubated for 24 hrs by Geimsa-staining based light microscopic analysis. It counts as functional, organism-based.
Data set [11] has as its system Plasmodium falciparum. Nature of the data set: Induction of morphological changes in asexual blood stage Plasmodium falciparum assessed as appearance of healthy rings at 1 uM incubated for 48 to 72 hrs by Geimsa-staining based light microscopic analysis. It counts as functional, organism-based. The note with it: time 48-72 hrs.
Data set [12] has as its system Plasmodium falciparum. Nature of the data set: Induction of morphological changes in asexual blood stage Plasmodium falciparum assessed as appearance of schizonts at 1 uM incubated for 48 to 72 hrs by Geimsa-staining based light microscopic analysis. The note with it: time 48-72 hrs. It is filed as functional, organism-based.
The subject of another data set is Plasmodium berghei. The data set is described as follows: Antimalarial activity against GFP-luciferase expressing liver stage Plasmodium berghei sporozoites infected in human HepG2 cells assessed as inhibition of parasitic growth by luminescence based analysis. It is filed as functional, organism-based.
Data set [13] relates to Plasmodium yoelii. The data set is described as follows: Antimalarial activity against Plasmodium yoelii N67 infected in female Swiss mouse model assessed as reduction in parasitic growth at 100 mg/kg, po administered for 3 days and measured on day 28 by Giemsa staining based analysis. It is filed as functional, organism-based. To be noted: time 28.0 day.
Data set [14] has as its system Plasmodium yoelii. The data set is described as follows: Antimalarial activity against Plasmodium yoelii N67 infected in female Swiss mouse model assessed as inhibition of parasitic growth at 100 mg/kg, po administered for 4 days and measured on day 28 by Giemsa staining based analysis. It counts as functional, organism-based. To be noted: time 4.0 day.
Data set [15] deals with Plasmodium yoelii. The data set is described as follows: Antimalarial activity against Plasmodium yoelii N67 infected in female Swiss mouse model assessed as inhibition of parasitic growth at 100 mg/kg, po measured on day 7 relative to control. It counts as functional. The arrangement: scale not given: the % may be the effect or the level left. To be noted: time 7 day.
The subject of data set [16] is Plasmodium yoelii. Nature of the data set: Antimalarial activity against Plasmodium yoelii N67 infected in female Swiss mouse model assessed as inhibition of parasitic growth at 100 mg/kg, po measured on day 10 relative to control. It counts as functional. The arrangement: scale not given: the % may be the effect or the level left. To be noted: time 10 day.
The test system of data set [17] is Plasmodium yoelii. Nature of the data set: Antimalarial activity against Plasmodium yoelii N67 infected in female Swiss mouse model assessed as mean survival time at 100 mg/kg, po measured on day 17 relative to control. It is filed as functional. To be noted: N67, 408 h, time 17 day.
The test system of data set [18] is Plasmodium yoelii. The data set is described as follows: Antimalarial activity against Plasmodium yoelii N67 infected in female Swiss mouse model assessed as mean survival time at 100 mg/kg, po measured on day 24 relative to control. It counts as functional. To be noted: N67, 576 h, time 24 day.
Data set [19] has as its system Plasmodium yoelii. Nature of the data set: Antimalarial activity against Plasmodium yoelii N67 infected in female Swiss mouse model assessed as mean survival time at 100 mg/kg administered orally (reference value: 11 days). It is filed as functional. To be noted: route po.
A short description of data set [20]: Volume of distribution in male Swiss mouse at 100 mg/kg, po by LC-MS/MS analysis. It is filed as ADME, organism-based. The note with it: in vivo.
The nature of data set [21]: Half life in male Swiss mouse at 100 mg/kg, po by LC-MS/MS analysis. It is filed as ADME, organism-based. To be noted: in vivo.
Data set [22] can be described thus: Cmax in male Swiss mouse at 100 mg/kg, po by LC-MS/MS analysis. It is filed as ADME, organism-based. To be noted: in vivo.
Data set [23] in a line: Tmax in male Swiss mouse at 100 mg/kg, po by LC-MS/MS analysis. It counts as ADME, organism-based. To be noted: in vivo.
The nature of data set [24]: Stability of the compound in simulated physiological fluid at pH 7.4 assessed as compound remaining measured after 120 mins by HPLC analysis relative to control. The note with it: read-out: Stability. It counts as physicochemical.
Data set [25] in a line: Stability of the compound in simulated intestinal fluid at pH 6.8 assessed as compound remaining measured after 120 mins by HPLC analysis relative to control. It counts as physicochemical. The note with it: read-out: Stability.
Data set [26] can be described thus: Stability of the compound in mouse plasma assessed as compound remaining measured after 120 mins by HPLC analysis relative to control. It counts as ADME, cell-free. The note with it: read-out: Stability.
Data set [27] in a line: Clearance in male Swiss mouse at 100 mg/kg, po by LC-MS/MS analysis. It is filed as ADME, organism-based. To be noted: in vivo.
The nature of data set [28]: AUC in male Swiss mouse at 100 mg/kg, po by LC-MS/MS analysis. It counts as ADME, organism-based. To be noted: in vivo.
Data set [29] in a line: MRT in male Swiss mouse at 100 mg/kg, po by LC-MS/MS analysis. It counts as ADME, organism-based. The note with it: in vivo.
Data set [30] relates to Plasmodium yoelii. The data set is described as follows: Antimalarial activity against Plasmodium yoelii N67 infected in female Swiss mouse model assessed as suppression in parasitic growth at 20 mg/kg, po measured on day 4 relative to control. It is filed as functional.
Data set [31] deals with Plasmodium yoelii. The data set is described as follows: Antimalarial activity against Plasmodium yoelii N67 infected in female Swiss mouse model assessed as mean survival time at 20 mg/kg administered orally. It counts as functional. The note with it: route po.
In data set [32] the test system is Plasmodium yoelii. The data set is described as follows: Antimalarial activity against Plasmodium yoelii N67 infected in female Swiss mouse model assessed as mean survival time at 10 mg/kg administered orally. It is filed as functional. The note with it: route po.
Data set [33] has as its system Plasmodium yoelii. Nature of the data set: Antimalarial activity against Plasmodium yoelii N67 infected in female Swiss mouse model assessed as suppression in parasitic growth at 20 mg/kg, po measured on day 7 relative to control. It counts as functional.
Data set [34] has as its system Plasmodium yoelii. Nature of the data set: Antimalarial activity against Plasmodium yoelii N67 infected in female Swiss mouse model assessed as parasite survival at 20 mg/kg, po measured after 7 days relative to control. It counts as functional. To be noted: N67, 168 h, time 7 day.
The test system of data set [35] is Plasmodium yoelii. Nature of the data set: Antimalarial activity against Plasmodium yoelii N67 infected in female Swiss mouse model assessed as suppression in parasitic growth at 10 mg/kg, po measured on day 4 relative to control. To be noted: time 4 day. It is filed as functional.
The subject of data set [36] is Plasmodium yoelii. Nature of the data set: Antimalarial activity against Plasmodium yoelii N67 infected in female Swiss mouse model assessed as suppression in parasitic growth at 10 mg/kg, po measured on day 7 relative to control. The note with it: time 7 day. It is filed as functional.
Data set [37] deals with Plasmodium falciparum. The data set is described as follows: Antimalarial activity against Plasmodium falciparum W2. It counts as functional, organism-based.
For data set [38], the system named is Plasmodium falciparum. The data set is described as follows: Antimalarial activity against Plasmodium falciparum 3D7. It counts as functional, organism-based.

Take `O=C(NCc1cn(-c2cccc(C(F)(F)F)c2)nn1)c1cc2c([nH]c3ccccc32)c(-c2ccc(F)cc2)n1`: the results for the IC50 in the data set with Plasmodium falciparum [1], in the data set with Plasmodium falciparum [2] and with Plasmodium berghei were 0.84 µM, 0.4 µM and 5.88 µM, respectively. The “Ratio IC50” value in data set [3] stood at 0.48. Half-maximal cytotoxicity in data set [4] (CC50) was put at 195 µM. Further, the selectivity ratio at 72 h in [5] was found to be 232. In addition, the Activity in the data set with Plasmodium falciparum [6] is reported as 95.63%; with Plasmodium falciparum [7] it was “Active; Irreversible Structural Deformations Observed”; in the data set on Plasmodium falciparum [8] it was “Active; Irreversible Structural Deformations Observed”; in the data set on Plasmodium falciparum [9] it was “Active; Irreversible Structural Deformations Observed”; in the data set on Plasmodium falciparum [10] it was “Active; Irreversible Structural Deformations Observed”; with Plasmodium yoelii [14], “Moderate_effect”. Moreover, the Activity in the data set with Plasmodium yoelii [15] was determined as 42.55%; in the data set on Plasmodium yoelii [16], 35.93%. For the same molecule, the outcome with Plasmodium falciparum [11] and in the data set on Plasmodium falciparum [12] was inactive. Besides, in the data set with Plasmodium yoelii [13], the outcome was Active. Also, the survival at 100 mg/kg in the data set on Plasmodium yoelii [17] is 60%; with Plasmodium yoelii [18] it was 20%. Further, the MST in the data set with Plasmodium yoelii [19] came to 17 days. The molecule also yielded a Vd in data set [20] of 4.97207 L/kg. Also, in data set [21], the t1/2 worked out at 3.74 h. The molecule further yielded a Cmax in data set [22] of 15.17 ng/mL. Also, the Tmax in data set [23] came out at 4 h. For the same molecule, the remaining at 2 h in data set [24], in data set [25] and in data set [26] was at least 60% each time. Besides, in data set [27], the CL was found to be 15.324 mL/min/kg. This molecule also had an AUC in [28] of 112 µg·h/mL. This molecule also showed an MRT in data set [29] of 7.3 h.

With `CCN(CC)CCCC(C)Nc1ccnc2cc(Cl)ccc12` (centres undefined) [CHLOROQUINE], the Activity is reported as 99% with Plasmodium yoelii [30], 91% in the data set with Plasmodium yoelii [33], 97.8% in the data set on Plasmodium yoelii [35] and 88% in the data set with Plasmodium yoelii [36]. Besides, the figures for the MST in the data set on Plasmodium yoelii [31] and in the data set with Plasmodium yoelii [32] were over 28 days and 16 days, respectively. Besides, in the data set with Plasmodium yoelii [34], the survival at 20 mg/kg worked out at 60%.

In the data set on Plasmodium falciparum [37], `COc1cc(-c2nccc3c2[nH]c2ccccc23)cc(OC)c1OC` showed an IC50 of 0.51 µM.

`Clc1ccc(-n2cc(-c3cncc4ccccc34)nn2)cc1` had an IC50 with Plasmodium falciparum [38] of 36.9 µM.

The values above are taken from ChEMBL document CHEMBL6177959, “Design, synthesis and evaluation of novel carboline-triazole hybrids as promising antimalarial agents” (Eur J Med Chem, 2025).
